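Compound exposure: 48 hours, 5 concentrations, 96-well plates. GI50: concentration for 50% inhibition of growth. TGI: total growth inhibition.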
How the values were obtained:
Experiment in all cases: growth of human tumour cells (NCI), 48 h
786-0 renal = tested on: 786-0 renal
A498 renal = tested on: A498 renal
A549 NSCLC = tested on: A549 NSCLC
ACHN renal = tested on: ACHN renal
BT-549 breast = tested on: BT-549 breast
CAKI-1 renal = tested on: CAKI-1 renal
CCRF-CEM leukemia = tested on: CCRF-CEM leukemia
COLO 205 colon = tested on: COLO 205 colon
DU-145 prostate = tested on: DU-145 prostate
EKVX NSCLC = tested on: EKVX NSCLC
HCC-2998 colon = tested on: HCC-2998 colon
HCT-116 colon = tested on: HCT-116 colon
HCT-15 colon = tested on: HCT-15 colon
HL-60(TB) leukemia = tested on: HL-60(TB) leukemia
HOP-62 NSCLC = tested on: HOP-62 NSCLC
HOP-92 NSCLC = tested on: HOP-92 NSCLC
HS 578T breast = tested on: HS 578T breast
HT29 colon = tested on: HT29 colon
IGROV1 ovarian = tested on: IGROV1 ovarian
K-562 leukemia = tested on: K-562 leukemia
KM12 colon = tested on: KM12 colon
LOX IMVI melanoma = tested on: LOX IMVI melanoma
M14 melanoma = tested on: M14 melanoma
MALME-3M melanoma = tested on: MALME-3M melanoma
MCF7 breast = tested on: MCF7 breast
MDA-MB-231 breast = tested on: MDA-MB-231 breast
MDA-MB-435 = tested on: MDA-MB-435
MOLT-4 leukemia = tested on: MOLT-4 leukemia
NCI-H226 lung = tested on: NCI-H226 lung
NCI-H23 lung = tested on: NCI-H23 lung
NCI-H460 lung = tested on: NCI-H460 lung
NCI-H522 lung = tested on: NCI-H522 lung
NCI/ADR-RES ovarian = tested on: NCI/ADR-RES ovarian
OVCAR-3 ovarian = tested on: OVCAR-3 ovarian
OVCAR-4 ovarian = tested on: OVCAR-4 ovarian
OVCAR-5 ovarian = tested on: OVCAR-5 ovarian
OVCAR-8 ovarian = tested on: OVCAR-8 ovarian
PC-3 prostate = tested on: PC-3 prostate
RPMI-8226 leukemia = tested on: RPMI-8226 leukemia
RXF 393 renal = tested on: RXF 393 renal
SF-268 CNS = tested on: SF-268 CNS
SF-295 CNS = tested on: SF-295 CNS
SF-539 CNS = tested on: SF-539 CNS
SK-MEL-2 melanoma = tested on: SK-MEL-2 melanoma
SK-MEL-28 melanoma = tested on: SK-MEL-28 melanoma
SK-MEL-5 melanoma = tested on: SK-MEL-5 melanoma
SK-OV-3 ovarian = tested on: SK-OV-3 ovarian
SN12C renal = tested on: SN12C renal
SNB-19 CNS = tested on: SNB-19 CNS
SNB-75 CNS = tested on: SNB-75 CNS
SR leukemia = tested on: SR leukemia
SW-620 colon = tested on: SW-620 colon
T-47D breast = tested on: T-47D breast
TK-10 renal = tested on: TK-10 renal
U251 CNS = tested on: U251 CNS
UACC-257 melanoma = tested on: UACC-257 melanoma
UACC-62 melanoma = tested on: UACC-62 melanoma
UO-31 renal = tested on: UO-31 renal

Structure (SMILES): COc1ccc(C(C)=C(c2ccc(OCCN(C)C)cc2)c2ccc(OCCN(C)C)cc2)cc1
- GI50 (786-0 renal): 445 nM
- TGI (786-0 renal): 1100 nM
- GI50 (A498 renal): 1130 nM
- TGI (A498 renal): 4150 nM
- GI50 (A549 NSCLC): 1030 nM
- TGI (A549 NSCLC): 4480 nM
- GI50 (ACHN renal): 763 nM
- TGI (ACHN renal): 2510 nM
- GI50 (BT-549 breast): 1850 nM
- TGI (BT-549 breast): 5240 nM
- GI50 (CAKI-1 renal): 647 nM
- TGI (CAKI-1 renal): 2310 nM
- GI50 (CCRF-CEM leukemia): 624 nM
- TGI (CCRF-CEM leukemia): 2360 nM
- GI50 (COLO 205 colon): 432 nM
- TGI (COLO 205 colon): 908 nM
- GI50 (DU-145 prostate): 1810 nM
- TGI (DU-145 prostate): 5180 nM
- GI50 (EKVX NSCLC): 1650 nM
- TGI (EKVX NSCLC): 5250 nM
- GI50 (HCC-2998 colon): 858 nM
- TGI (HCC-2998 colon): 3490 nM
- GI50 (HCT-116 colon): 415 nM
- TGI (HCT-116 colon): 2450 nM
- GI50 (HCT-15 colon): 582 nM
- TGI (HCT-15 colon): 2050 nM
- GI50 (HL-60(TB) leukemia): 477 nM
- TGI (HL-60(TB) leukemia): 999 nM
- GI50 (HOP-62 NSCLC): 1360 nM
- TGI (HOP-62 NSCLC): 3420 nM
- GI50 (HOP-92 NSCLC): 633 nM
- TGI (HOP-92 NSCLC): 3170 nM
- GI50 (HS 578T breast): 884 nM
- TGI (HS 578T breast): 4250 nM
- GI50 (HT29 colon): 490 nM
- TGI (HT29 colon): 1630 nM
- GI50 (IGROV1 ovarian): 1100 nM
- TGI (IGROV1 ovarian): 3920 nM
- GI50 (K-562 leukemia): 395 nM
- TGI (K-562 leukemia): 918 nM
- GI50 (KM12 colon): 1070 nM
- TGI (KM12 colon): 4210 nM
- GI50 (LOX IMVI melanoma): 343 nM
- TGI (LOX IMVI melanoma): 741 nM
- GI50 (M14 melanoma): 427 nM
- TGI (M14 melanoma): 824 nM
- GI50 (MALME-3M melanoma): 439 nM
- TGI (MALME-3M melanoma): 893 nM
- GI50 (MCF7 breast): 243 nM
- TGI (MCF7 breast): 889 nM
- GI50 (MDA-MB-231 breast): 684 nM
- TGI (MDA-MB-231 breast): 2290 nM
- GI50 (MDA-MB-435): 507 nM
- TGI (MDA-MB-435): 1130 nM
- GI50 (MOLT-4 leukemia): 544 nM
- TGI (MOLT-4 leukemia): 1610 nM
- GI50 (NCI-H226 lung): 3030 nM
- TGI (NCI-H226 lung): 6890 nM
- GI50 (NCI-H23 lung): 2950 nM
- TGI (NCI-H23 lung): 6530 nM
- GI50 (NCI-H460 lung): 828 nM
- TGI (NCI-H460 lung): 2940 nM
- GI50 (NCI-H522 lung): 866 nM
- TGI (NCI-H522 lung): 3620 nM
- GI50 (NCI/ADR-RES ovarian): 1340 nM
- TGI (NCI/ADR-RES ovarian): 4680 nM
- GI50 (OVCAR-3 ovarian): 585 nM
- TGI (OVCAR-3 ovarian): 1790 nM
- GI50 (OVCAR-4 ovarian): 865 nM
- TGI (OVCAR-4 ovarian): 3250 nM
- GI50 (OVCAR-5 ovarian): 1720 nM
- TGI (OVCAR-5 ovarian): 5010 nM
- GI50 (OVCAR-8 ovarian): 1170 nM
- TGI (OVCAR-8 ovarian): 4540 nM
- GI50 (PC-3 prostate): 1360 nM
- TGI (PC-3 prostate): 4810 nM
- GI50 (RPMI-8226 leukemia): 584 nM
- TGI (RPMI-8226 leukemia): 1510 nM
- GI50 (RXF 393 renal): 381 nM
- TGI (RXF 393 renal): 934 nM
- GI50 (SF-268 CNS): 1110 nM
- TGI (SF-268 CNS): 4350 nM
- GI50 (SF-295 CNS): 510 nM
- TGI (SF-295 CNS): 1180 nM
- GI50 (SF-539 CNS): 468 nM
- TGI (SF-539 CNS): 948 nM
- GI50 (SK-MEL-2 melanoma): 588 nM
- TGI (SK-MEL-2 melanoma): 1390 nM
- GI50 (SK-MEL-28 melanoma): 464 nM
- TGI (SK-MEL-28 melanoma): 904 nM
- GI50 (SK-MEL-5 melanoma): 432 nM
- TGI (SK-MEL-5 melanoma): 794 nM
- GI50 (SK-OV-3 ovarian): 3910 nM
- TGI (SK-OV-3 ovarian): 7510 nM
- GI50 (SN12C renal): 2000 nM
- TGI (SN12C renal): 6090 nM
- GI50 (SNB-19 CNS): 1330 nM
- TGI (SNB-19 CNS): 4860 nM
- GI50 (SNB-75 CNS): 2280 nM
- TGI (SNB-75 CNS): 5950 nM
- GI50 (SR leukemia): 321 nM
- TGI (SR leukemia): 941 nM
- GI50 (SW-620 colon): 639 nM
- TGI (SW-620 colon): 2220 nM
- GI50 (T-47D breast): 374 nM
- TGI (T-47D breast): 966 nM
- GI50 (TK-10 renal): 3310 nM
- TGI (TK-10 renal): 6860 nM
- GI50 (U251 CNS): 679 nM
- TGI (U251 CNS): 2610 nM
- GI50 (UACC-257 melanoma): 469 nM
- TGI (UACC-257 melanoma): 957 nM
- GI50 (UACC-62 melanoma): 533 nM
- TGI (UACC-62 melanoma): 1250 nM
- GI50 (UO-31 renal): 804 nM
- TGI (UO-31 renal): 2110 nM

Reference: PubChem BioAssay (NCI)
